Data from US8952024B2, “Herbicidal pyrimidone derivatives” (E I du Pont de Nemours and Company, priority 2009, dated 2015).

Assays:
Test in all cases: Test B pre-/postemergence plant response
Format in all cases: in vivo
[1] = tested on: johnsongrass (Sorghum halepense); conditions: Postemergence
In short: (§1)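 Seeds were sown in loam soil/sand blend and treated preemergence with compound in non-phytotoxic solvent mixture containing surfactant; postemergence sprays, same formulation, went onto plants 2 to 18 cm (1- to 4-leaf stage) in peat-based planting medium. Greenhouse 13 to 15 days, then visual rating versus untreated controls, 0 (no effect) to 100 (complete control).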

[2] = tested on: bermudagrass (Cynodon dactylon); conditions: for Plant response rating, Bermudagrass: Postemergence
In short: as §1

[3] = tested on: large crabgrass (Digitaria sanguinalis); conditions: Postemergence
In short: as §1

[4] = tested on: yellow nutsedge (Cyperus esculentus); conditions: Postemergence
In short: as §1

[5] = tested on: morningglory (Ipomoea coccinea); conditions: Postemergence
In short: as §1

[6] = tested on: giant foxtail (Setaria faberii); conditions: Postemergence
In short: as §1

[7] = tested on: Italian ryegrass (Lolium multiflorum); conditions: Postemergence
In short: as §1

[8] = tested on: downy bromegrass (Bromus tectorum); conditions: for Plant response rating, Bromegrass, Downy: Postemergence
In short: as §1

[9] = tested on: green foxtail (Setaria viridis); conditions: Postemergence
In short: as §1

corn (Zea mays) = conditions: Postemergence
In short: as §1

[10] = tested on: goosegrass (Eleusine indica); conditions: Postemergence
In short: as §1

[11] = tested on: ragweed (common ragweed, Ambrosia elatior); conditions: Postemergence
In short: as §1

[12] = tested on: woolly cupgrass (Eriochloa villosa); conditions: Postemergence
In short: as §1

[13] = 31 g ai/ha, 0 to 100 scale (0 no effect, 100 complete control)
[14] = 125 g ai/ha, scale 0 to 100 (0 no effect, 100 complete control)
[15] = 250 g ai/ha, scale 0 to 100 (0 no effect, 100 complete control), 13 to 15 days
[16] = 62 g ai/ha, postemergence, 0 is no effect, 100 is complete control, 13 to 15 days

O=C1CCCC(O)=C1C(=O)c1cnc(-c2cccc(F)c2)n(C2CCCCC2)c1=O [Compound 187]
Plant response rating, Johnsongrass [1, 13]: 90
Plant response rating, Johnsongrass [1, 14]: 100
Plant response rating, Johnsongrass [1, 15]: 100
Bermudagrass plant response rating (0 to 100 scale) [2, 16]: 85
Plant response rating, Bermudagrass [2, 13]: 75
Plant response rating, Bermudagrass [2, 14]: 100
Plant response rating, Bermudagrass [2, 15]: 100
Plant response rating, Crabgrass, Large [3, 13]: 85
Plant response rating, Crabgrass, Large [3, 14]: 100
Plant response rating, Crabgrass, Large [3, 15]: 100
Plant response rating, Nutsedge, Yellow [4, 13]: 45
Plant response rating, Nutsedge, Yellow [4, 14]: 65
Plant response rating, Nutsedge, Yellow [4, 15]: 75
Plant response rating, Morningglory [5, 13]: 80
Plant response rating, Morningglory [5, 14]: 100
Plant response rating, Morningglory [5, 15]: 100
Plant response rating, Foxtail, Giant [6, 13]: 98
Plant response rating, Foxtail, Giant [6, 14]: 100
Plant response rating, Foxtail, Giant [6, 15]: 100
Plant response rating, Ryegrass, Italian [7, 13]: 0
Plant response rating, Ryegrass, Italian [7, 14]: 10
Plant response rating, Ryegrass, Italian [7, 15]: 30
Bromegrass, Downy plant response rating (0 to 100 scale) [8, 16]: 30
Plant response rating, Bromegrass, Downy [8, 13]: 5
Plant response rating, Bromegrass, Downy [8, 14]: 35
Plant response rating, Bromegrass, Downy [8, 15]: 40
Plant response rating, Foxtail, Green [9, 13]: 65
Plant response rating, Foxtail, Green [9, 14]: 98
Plant response rating, Foxtail, Green [9, 15]: 98
Plant response rating, Corn (corn (Zea mays); [13]): 50
Plant response rating, Corn (corn (Zea mays); [14]): 75
Plant response rating, Corn (corn (Zea mays); [15]): 80
Plant response rating, Goosegrass [10, 13]: 85
Plant response rating, Goosegrass [10, 14]: 100
Plant response rating, Goosegrass [10, 15]: 100
Plant response rating, Ragweed [11, 13]: 95
Plant response rating, Ragweed [11, 14]: 100
Plant response rating, Ragweed [11, 15]: 100
Plant response rating, Cupgrass, Woolly [12, 13]: 80
Plant response rating, Cupgrass, Woolly [12, 14]: 85
Plant response rating, Cupgrass, Woolly [12, 15]: 95
